Data reported in US20060177888A1, “Method for evaluating antioxidation capability of organism sample” (Chugai Seiyaku Kabushiki Kaisha, priority 2003, published 2006).

Legend:
[1] = system: cholesterol esters contained in plasma samples; assay: Amounts of CEOOHs and CEOHs produced in AAPH-initiated oxidation of plasma samples with added antioxidant; assay type: biochemical; settings: antioxidant added to human plasma at various concentrations five minutes before AAPH (10 mM), 37° C., 8 hours; endogenous α-tocopherol present; FIG. 4
Protocol: Assay reproducibility was tested for oxidation products of cholesterol esters contained in plasma samples obtained from a normal human subject. In this test, the cholesterol esters were regarded as oxidizable substrates.
Blood was collected in heparin from one normal human subject who gave informed consent to prepare a plasma pool.
1.1 mL portions of this plasma sample were put into nine test tubes and were frozen-stored at −80° C.
Three test tubes A, B and C containing the frozen plasma were warmed to 37° C. for 5 minutes to thaw the frozen plasma. After thawing, the test tubes were kept in ice.
10 μL of an aqueous solution of AAPH (available from Wako Pure Chemical Industries, Ltd.; Lot No. DWF 1183) was added to 300 μL of plasma removed from each test tube at an AAPH concentration of 10 mM. Then, they were warmed to 37° C. to initiate an oxidation reaction.
After maintaining at 37° C. for 8 hours, the 3 vessels each containing the reaction solution were immersed in ice to stop the reaction. 1 mL of a methanol containing 0.02% acetic acid and 5 mL of hexane were added to 100 μL of each reaction solution to extract lipids. 4 mL of the hexane extract removed from each reaction solution was concentrated on Speed Vac (AES1010 available from Thermo Savant), and each concentrate was dissolved in 200 μL of isopropyl alcohol. […]

[2] = reported in literature (Gotoh 1992; Noguchi 1997); cited from earlier work

SMILES: CCCCCC1(CCCCC)Cc2c(cc(C(C)(C)C)c(O)c2C(C)(C)C)O1 [BO-653, 4,6-di-t-butyl-5-hydroxy-2,2-di-n-pentyl-2,3-dihydrobenzofuran]
- amounts of CEOOHs and CEOHs produced with the increase of the concentration of the antioxidant [1]: significantly decrease
- rate of the reaction with linoleic acid peroxy radicals, expressed as ratio to the rate of the reaction of α-tocopherol [2]: 1/2

SMILES: Cc1c(C)c2c(c(C)c1O)CC[C@@](C)(CCC[C@H](C)CCC[C@H](C)CCCC(C)C)O2 [α-tocopherol]
- amounts of CEOOHs and CEOHs produced with the increase of the concentration of the antioxidant [1]: significantly increase
